This is an account of results in PMC7397269, “Synthesis and Evaluation of New Coumarin Derivatives as Antioxidant, Antimicrobial, and Anti-Inflammatory Agents” (Molecules, 2020).

Series [1] can be described thus: DPPH antioxidant assay (radical scavenging). The conditions noted are these: mean ± SD (n = 3). The class given is biochemical. In short, it runs like this:
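Compounds, starting at 200 μg/mL, were mixed with 0.2 mM methanolic DPPH and incubated 30 min in the dark at 25 °C; absorbance was read at 515 nm. % inhibition is background-corrected against DPPH-only control, with IC50 from curve fit. Runs were triplicate (mean ± SD), with ascorbic acid as positive control.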

The subject of series [2] is Staphylococcus aureus ATCC 29213. The experiment in a line: Agar well diffusion, S. aureus. Format: cell-based. The conditions noted are these: ATCC29213, 100 μL of 10 mg/mL in DMSO, read-out: diameter of inhibition zone, SA. In outline: (§1)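 Wells (10 mm) in nutrient agar (bacteria, 1 × 10^8 CFU/mL) or Sabouraud dextrose agar (yeast, 1 × 10^6 CFU/mL) loaded with 100 μL of 10 mg/mL compound in DMSO. Plates incubated 24 h at 37 °C. Inhibition zone diameter (mm), mean of triplicates.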

Series [3] deals with Bacillus subtilis ATCC 6633. The experiment in a line: Agar well diffusion, B. subtilis. The class given is cell-based. The note with it: ATCC6633, 100 μL of 10 mg/mL in DMSO, read-out: diameter of inhibition zone, BS. In outline:
as §1

Series [4] concerns Bacillus megaterium ATCC 9885. Briefly: Agar well diffusion, B. megaterium. The class given is cell-based. The note with it: Priestia megaterium, ATCC9885, 100 μL of 10 mg/mL in DMSO, read-out: diameter of inhibition zone, BM. In short, it runs like this:
as §1

For series [5], the system named is Escherichia coli ATCC 2592. Briefly: Agar well diffusion, E. coli. Format: cell-based. The note with it: ATCC2592, 100 μL of 10 mg/mL in DMSO, read-out: diameter of inhibition zone, EC. In short, it runs like this: as §1
For series [6], the system named is Pseudomonas aeruginosa ATCC 27,953. Briefly: Agar well diffusion, P. aeruginosa. Format: cell-based. The conditions noted are these: ATCC27, 100 μL of 10 mg/mL in DMSO, read-out: diameter of inhibition zone, PA. In short, it runs like this: as §1
The test system of series [7] is Saccharomyces cerevisiae local isolate. Briefly: Agar well diffusion, S. cerevisiae. The class given is cell-based. The conditions noted are these: well diffusion, 100 μL of 10 mg/mL in DMSO, S. cerevisiae, read-out: diameter of inhibition zone, SC. In outline: as §1
The subject of series [8] is Candida albicans NRRL Y-477. The experiment in a line: Agar well diffusion, C. albicans. The class given is cell-based. The conditions noted are these: NRRLY477, 100 μL of 10 mg/mL in DMSO, read-out: diameter of inhibition zone, CA. In short, it runs like this:
as §1

Series [9] has as its system trypsin. The experiment in a line: Proteinase-inhibitory activity. Format: biochemical. The conditions noted are these: 250 µg/mL; mean ± SD (n = 3). In outline:
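Trypsin (0.06 mg per 2 mL, 20 mM Tris-HCl pH 7.4) was preincubated 5 min with test sample at 250 µg/mL, then 0.8% casein was added for 20 min. Perchloric acid stopped the reaction and supernatant absorbance was read at 280 nm. % inhibition is relative to the no-sample control, in triplicate.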

The target in series [10] is T1, COX-1 (Homo sapiens, UniProt P23219).
T1 construct: purchased Cayman Chemical 701070
The experiment in a line: COX-1 inhibition, Cayman assay kit. Format: biochemical. The conditions noted are these: mean of two determinations.

The target in series [11] is T2, COX-2 (Homo sapiens, UniProt P35354).
T2 construct: purchased Cayman Chemical 701080
T2 sequence (P35354 18-604): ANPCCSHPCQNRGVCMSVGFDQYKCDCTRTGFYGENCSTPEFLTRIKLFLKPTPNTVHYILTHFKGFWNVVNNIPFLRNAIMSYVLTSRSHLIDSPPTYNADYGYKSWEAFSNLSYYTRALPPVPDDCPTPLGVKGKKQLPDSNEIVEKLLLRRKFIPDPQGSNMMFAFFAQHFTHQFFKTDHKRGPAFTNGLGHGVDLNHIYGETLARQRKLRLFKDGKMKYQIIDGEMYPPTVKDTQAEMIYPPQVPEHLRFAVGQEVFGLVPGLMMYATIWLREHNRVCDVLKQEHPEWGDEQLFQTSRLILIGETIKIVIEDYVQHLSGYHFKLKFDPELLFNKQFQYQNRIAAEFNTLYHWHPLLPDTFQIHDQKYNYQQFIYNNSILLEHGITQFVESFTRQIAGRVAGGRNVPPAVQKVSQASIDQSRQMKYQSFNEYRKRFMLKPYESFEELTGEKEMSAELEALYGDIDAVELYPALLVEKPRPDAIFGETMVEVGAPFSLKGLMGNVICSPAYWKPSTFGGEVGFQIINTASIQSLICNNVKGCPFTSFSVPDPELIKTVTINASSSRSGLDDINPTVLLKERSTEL
Briefly: COX-2 inhibition, Cayman assay kit. Format: biochemical.

Series [12] relates to tested microorganisms. Briefly: Agar well diffusion, summary over the tested microorganisms. The conditions noted are these: all tested microorganisms. The class given is cell-based. The text has this: The new molecules were individually tested for their antimicrobial activity in vitro against standard bacteria strains from the American Type Culture Collection (ATCC), namely, Staphylococcus aureus ATCC 29213, Bacillus subtilis ATCC 6633, Bacillus megaterium ATCC 9885 (Gram-positive), Escherichia coli ATCC 2592, and Pseudomonas aeruginosa ATCC 27,953 (Gram-negative). The compounds were also microbiologically tested against locally isolated Saccharomyces cerevisiae (yeast) and the standard Agricultural Research Service Culture Collection (NRRL) strain of the yeast-like pathogenic fungus Candida albicans NRRL Y-477. Primary screening was conducted using the agar well diffusion method using nutrient agar (NA) medium and Sabourand dextrose agar (SDA) medium for the tested pathological bacteria and yeast, respectively. […].
Antimicrobial tests were conducted via the agar well diffusion method using 100 μL of suspension containing 1 × 10^8 CFU/mL pathological tested bacteria and 1 × 10^6 CFU/mL yeast spread on NA and SDA, respectively. […] After incubation, antimicrobial activity was evaluated by measuring the zone of inhibition against the test organisms and compared with that of the standard. Antimicrobial activities were expressed as the diameter of the inhibition zone (IZ) in mm. The experiment was carried out in triplicate and the average zone of inhibition was calculated.

In brackets after ≈: the same amount, converted by molar mass.

T1 sequence (P23219 24-599): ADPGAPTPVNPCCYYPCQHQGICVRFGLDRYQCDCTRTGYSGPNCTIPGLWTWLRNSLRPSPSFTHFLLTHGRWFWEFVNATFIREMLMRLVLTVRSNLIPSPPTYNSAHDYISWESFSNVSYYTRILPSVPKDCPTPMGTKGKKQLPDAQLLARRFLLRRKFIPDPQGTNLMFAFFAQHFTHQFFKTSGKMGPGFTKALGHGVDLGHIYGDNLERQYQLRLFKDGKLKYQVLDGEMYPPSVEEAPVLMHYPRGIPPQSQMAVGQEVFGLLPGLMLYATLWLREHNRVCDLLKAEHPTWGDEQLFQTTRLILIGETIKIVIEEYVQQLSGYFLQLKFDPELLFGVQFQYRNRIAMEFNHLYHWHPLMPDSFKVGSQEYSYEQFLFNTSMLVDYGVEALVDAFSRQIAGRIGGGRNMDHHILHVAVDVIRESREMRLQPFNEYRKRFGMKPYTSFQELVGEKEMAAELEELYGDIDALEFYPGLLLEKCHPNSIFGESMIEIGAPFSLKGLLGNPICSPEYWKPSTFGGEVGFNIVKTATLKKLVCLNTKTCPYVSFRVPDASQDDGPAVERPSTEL

The compound `Cc1ccc2oc(=O)c(S(=O)(=O)Nc3ccc(S(N)(=O)=O)cc3)c(O)c2c1` [7b, 4-Hydroxy-6-methyl-2-oxo-N-(4-sulfamoylphenyl)-2H-chromene-3-sulfonamide] displayed a melting point of 241 to 243 °C. In [1], the IC50 stood at 61.78 ± 2.719 µg/mL (≈ 151 µM). Also, the zone of inhibition at 10000 µg/mL in [2] is < 15 mm. The zone of inhibition at 10000 µg/mL in series [3] is < 15 mm. Also, in [4], the zone of inhibition at 10000 µg/mL was < 15 mm. The zone of inhibition at 10000 µg/mL in series [5] is < 15 mm. The zone of inhibition at 10000 µg/mL in series [6] was < 15 mm. Further, the zone of inhibition at 10000 µg/mL in [7] was < 15 mm. The zone of inhibition at 10000 µg/mL in [8] was < 15 mm. Besides, the “% Inhibition (proteinase)” value in series [9] came out at 5.93 ± 2.11%. In series [10], this compound registered an IC50 of 47.6 µM. Besides, in [11] (mean of two determinations), the midpoint of inhibition, the IC50, lay at 8.24 µM. Further, the “SI, selectivity index (COX-1/COX-2)” value in [11] (ratio of COX-1/COX-2 IC50) is 5.78. In series [12], the “IZ against the tested microorganisms” value was < 15 mm.
